Data reported in US9932327B2, “Rohitukine analogs as cyclin-dependent kinase inhibitors and a process for the preparation thereof” (COUNCIL OF SCIENTIFIC AND INDUSTRIAL RESEARCH, priority 2013, dated 2018).

Key:
Format in all cases: cell-based
Caco-2 (Colon) = test: Cytotoxicity, MTT assay, Caco-2; conditions: Homo sapiens; for inhibition at 10 µM: read-out: Cell Growth Inhibition (%)
Protocol: (§1) Compounds proposed in the present invention were evaluated for their cytotoxic effect against panel of six cancer cell line viz. HL-60 (Leukemia), PC-3 (Prostate), A-375 (Melanoma), MIAPaCa-2 (pancreatic), MCF-7 (Breast) and Caco-2 (Colon) using MTT assay. In each well of a 96-well plate, 3×10^3 cells were grown in 100 μL of medium. After 24 h, each test molecules were added to achieve a final concentration of 10 to 0.01 μmol/L, respectively. After 48 h of treatment, 20 μL of 2.5 mg/mL MTT (Organics Research, Inc.) solution in phosphate buffer saline was added to each well. After 48 h, supernatant was removed and formazan crystals were dissolved in 200 μL of DMSO. Absorbance was then measured at 570 nm using an absorbance plate reader (Bio-Rad Microplate Reader). Data are expressed as the percentage of viable cells in treated relative to non-treated conditions.

MIAPaCa-2 (pancreatic) = test: Cytotoxicity, MTT assay, MIAPaCa-2; conditions: Homo sapiens, MIA PaCa-2, read-out: Cell Growth Inhibition (%)
Protocol: as §1

PC-3 (Prostate) = test: Cytotoxicity, MTT assay, PC-3; conditions: for inhibition at 10 µM: read-out: Cell Growth Inhibition (%)
Protocol: as §1

HL-60 (Leukemia) = test: Cytotoxicity, MTT assay, HL-60; conditions: Homo sapiens; for inhibition at 10 µM: read-out: Cell Growth Inhibition (%)
Protocol: as §1

MCF-7 (Breast) = test: Cytotoxicity, MTT assay, MCF-7; conditions: Homo sapiens; for inhibition at 10 µM: MCF7, 10 μM, read-out: Cell Growth Inhibition (%); for IC50: MCF7
Protocol: as §1

A-375 (Melanoma) = test: Cytotoxicity, MTT assay, A-375; conditions: Homo sapiens; for inhibition at 10 µM: read-out: Cell Growth Inhibition (%)
Protocol: as §1

Row | SMILES | inhibition at 10 µM (Caco-2 (Colon)) | inhibition at 10 µM (MIAPaCa-2 (pancreatic)) | inhibition at 10 µM (PC-3 (Prostate)) | inhibition at 10 µM (HL-60 (Leukemia)) | inhibition at 10 µM (MCF-7 (Breast)) | inhibition at 10 µM (A-375 (Melanoma)) | IC50 (A-375 (Melanoma)) | IC50 (HL-60 (Leukemia)) | IC50 (PC-3 (Prostate)) | IC50 (Caco-2 (Colon)) | IC50 (MCF-7 (Breast))
1 | Cc1cc(=O)c2c(O)cc(OCc3ccccc3)c(C3CCN(C)CC3O)c2o1 (stereo not drawn) [Compound 2, 7-(benzyloxy)-5-hydroxy-8-(3-hydroxy-1-methylpiperidin-4-yl)-2-methyl-4H-chromen-4-one] | 17.6% | 13.8% | 41% | 24.3% | 1.44% | 27.8% |  |  |  |  | 
2 | COc1ccc(COc2cc(O)c3c(=O)cc(C)oc3c2C2CCN(C)CC2O)cc1 (stereo not drawn) [Compound 3, 7-(4-Methoxybenzyloxy)-5-hydroxy-8-(3-hydroxy-1-methylpiperidin-4-yl)-2-methyl-4H-chromen-4-one] | 8.43% | 15.7% | 35.2% | 22.8% | 15.6% |  |  |  |  |  | 
3 | Cc1cc(=O)c2c(O)cc(OCc3ccc(Br)cc3)c(C3CCN(C)CC3O)c2o1 (stereo not drawn) [Compound 4, 7-(4-Bromobenzyloxy)-5-hydroxy-8-(3-hydroxy-1-methylpiperidin-4-yl)-2-methyl-4H-chromen-4-one] | 13% | 13.2% | 17.1% | 26.9% | 14% | 45.5% |  |  |  |  | 
4 | Cc1cc(=O)c2c(O)cc(OCc3ccco3)c(C3CCN(C)CC3O)c2o1 (stereo not drawn) [Compound 5, 7-((Furan-2-yl)methoxy)-5-hydroxy-8-(3-hydroxy-1-methylpiperidin-4-yl)-2-methyl-4H-chromen-4-one] | 16.9% | 6.61% | 14.1% | 31.9% | 5.73% | 36.8% |  |  |  |  | 
5 | Cc1cc(=O)c2c(O)cc(OCc3cccs3)c(C3CCN(C)CC3O)c2o1 (stereo not drawn) [Compound 6, 7-((Thiophen-2-yl)methoxy)-5-hydroxy-8-(3-hydroxy-1-methylpiperidin-4-yl)-2-methyl-4H-chromen-4-one] | 33.3% | 13.2% | 22.8% | 22.2% | 19.8% | 53.8% | 8 µM |  |  |  | 
6 | Cc1cc(=O)c2c(O)cc(OC/C=C/c3ccccc3)c(C3CCN(C)CC3O)c2o1 (stereo not drawn) [Compound 7, 7-(Cinnamyloxy)-5-hydroxy-8-(3-hydroxy-1-methylpiperidin-4-yl)-2-methyl-4H-chromen-4-one] | 9.49% | 11.2% | 18.3% | 21% | 7.02% | 21.8% |  |  |  |  | 
7 | Cc1cc(=O)c2c(O)cc(OCc3nc4ccccc4[nH]3)c(C3CCN(C)CC3O)c2o1 (stereo not drawn) [Compound 10, 7-((1H-Benzo[d]imidazol-2-yl)methoxy)-5-hydroxy-8-(3-hydroxy-1-methylpiperidin-4-yl)-2-methyl-4H-chromen-4-one] |  |  |  |  |  |  |  | 8 µM |  |  | 
8 | Cc1oc2c(C3CCN(C)CC3O)c(O)cc(O)c2c(=O)c1C(O)c1c(Cl)cccc1Cl (stereo not drawn) [Compound 20, 3-((2,6-dichlorophenyl)(hydroxy)methyl)-5,7-dihydroxy-8-(3-hydroxy-1-methylpiperidin-4-yl)-2-methyl-4H-chromen-4-one] |  |  |  |  |  |  |  |  | 5 µM |  | 
9 | CN1CCC(c2c(O)cc(O)c3c(=O)cc(/C=C/c4ccccc4)oc23)C(O)C1 (stereo not drawn) [Compound 31, 2-styryl-5,7-dihydroxy-8-(3-hydroxy-1-methylpiperidin-4-yl)-4H-chromen-4-one] |  |  |  |  |  |  | 4.4 µM | 1 µM | 58 µM | 3.7 µM | 31 µM
10 | CN1CCC(c2c(O)cc(O)c3c(=O)cc(/C=C/c4ccc(Cl)cc4)oc23)C(O)C1 (stereo not drawn) [Compound 32, 2-(4-Chlorostyryl)-5,7-dihydroxy-8-(3-hydroxy-1-methylpiperidin-4-yl)-4H-chromen-4-one] |  |  |  |  |  |  | 30 µM | 8 µM | 31 µM | 5.6 µM | 49 µM
